For ten molecules, IC50 results are on record in patent publication US10034861B2 (priority 2016, dated 2018).

By IC50 is commonly meant the point on the concentration scale where inhibition reaches its midpoint.

SMILES strings stand for the structures. Where two headings read alike, the source gives them in different places.

What all share (format): biochemical
Test [1] has as its target PDE1B (Homo sapiens (Human), UniProt Q01064). The experiment in a line: PDE1 inhibition assay (PDE1B). As to conditions: 15 nM tritium labelled cAMP, 1 hr at room temperature, SPA beads. The source says:
(§1) Table 1 lists the IC50 value for inhibition of PDE1 by the compounds of the invention. […] PDE1 assays are described in the Experimental Section.

Test [2] has as its target PDE1C (Homo sapiens (Human), UniProt Q14123). The experiment in a line: biochemical.
Source text: as §1

For test [3], the target named is PDE1A (Homo sapiens (Human), UniProt P54750). The experiment in a line: biochemical.
Source text: as §1

[4] abbreviates: 15 nM tritium labelled cAMP, 1 hr at room temperature, SPA beads.

Sequence of PDE1B (Q01064 whole entry): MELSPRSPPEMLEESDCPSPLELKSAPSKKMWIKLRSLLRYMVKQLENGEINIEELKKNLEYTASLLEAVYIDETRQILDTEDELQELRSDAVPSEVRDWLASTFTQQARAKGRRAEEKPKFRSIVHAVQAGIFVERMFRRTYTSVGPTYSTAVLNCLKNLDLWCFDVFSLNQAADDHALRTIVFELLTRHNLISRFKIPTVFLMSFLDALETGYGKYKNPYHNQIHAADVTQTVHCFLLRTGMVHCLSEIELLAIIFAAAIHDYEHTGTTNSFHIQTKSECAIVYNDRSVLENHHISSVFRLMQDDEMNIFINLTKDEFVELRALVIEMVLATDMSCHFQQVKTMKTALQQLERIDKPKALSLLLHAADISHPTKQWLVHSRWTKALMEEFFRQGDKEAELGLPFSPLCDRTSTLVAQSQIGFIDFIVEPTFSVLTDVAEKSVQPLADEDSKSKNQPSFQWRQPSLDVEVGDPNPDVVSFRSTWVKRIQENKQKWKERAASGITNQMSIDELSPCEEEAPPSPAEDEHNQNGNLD
Sequence of PDE1C (Q14123 whole entry): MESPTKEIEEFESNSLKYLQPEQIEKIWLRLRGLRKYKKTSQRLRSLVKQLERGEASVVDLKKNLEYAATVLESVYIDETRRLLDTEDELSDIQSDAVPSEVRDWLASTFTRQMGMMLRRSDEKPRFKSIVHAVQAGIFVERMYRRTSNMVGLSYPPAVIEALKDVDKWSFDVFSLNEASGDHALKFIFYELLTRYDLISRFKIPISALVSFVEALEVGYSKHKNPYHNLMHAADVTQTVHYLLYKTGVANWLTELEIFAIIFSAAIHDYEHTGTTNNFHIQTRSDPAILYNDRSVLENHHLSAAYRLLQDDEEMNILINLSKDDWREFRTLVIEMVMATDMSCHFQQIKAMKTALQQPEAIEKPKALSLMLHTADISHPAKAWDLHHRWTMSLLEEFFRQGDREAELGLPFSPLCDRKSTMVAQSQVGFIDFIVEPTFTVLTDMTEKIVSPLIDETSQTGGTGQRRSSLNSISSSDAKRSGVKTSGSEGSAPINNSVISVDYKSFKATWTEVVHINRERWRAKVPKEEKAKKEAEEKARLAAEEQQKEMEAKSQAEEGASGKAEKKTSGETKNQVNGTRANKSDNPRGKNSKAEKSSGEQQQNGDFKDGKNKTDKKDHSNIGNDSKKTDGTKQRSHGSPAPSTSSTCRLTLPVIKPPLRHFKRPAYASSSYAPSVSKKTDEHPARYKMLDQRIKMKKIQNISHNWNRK
Sequence of PDE1A (P54750 whole entry): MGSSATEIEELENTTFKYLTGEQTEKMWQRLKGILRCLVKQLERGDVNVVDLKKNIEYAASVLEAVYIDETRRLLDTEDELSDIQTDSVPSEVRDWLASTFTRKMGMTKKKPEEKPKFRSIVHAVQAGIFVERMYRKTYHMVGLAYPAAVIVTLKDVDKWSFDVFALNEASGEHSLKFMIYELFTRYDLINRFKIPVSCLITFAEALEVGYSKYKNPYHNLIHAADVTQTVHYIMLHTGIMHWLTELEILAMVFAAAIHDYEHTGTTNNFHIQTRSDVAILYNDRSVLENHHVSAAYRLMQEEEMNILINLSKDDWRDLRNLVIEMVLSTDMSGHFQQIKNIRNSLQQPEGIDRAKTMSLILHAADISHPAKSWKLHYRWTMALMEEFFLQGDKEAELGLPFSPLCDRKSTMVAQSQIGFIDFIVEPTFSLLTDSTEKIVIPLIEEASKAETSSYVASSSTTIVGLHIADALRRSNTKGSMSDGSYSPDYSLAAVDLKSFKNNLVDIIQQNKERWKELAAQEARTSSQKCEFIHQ

Regarding `CCOc1ncccc1-c1cc(NCc2ncccc2OC)c2c(n1)c(C)nn2C(C)C` [Example 118, 5-(2-ethoxy-3-pyridyl)-1-isopropyl-N-[(3-methoxy-2-pyridyl)methyl]-3-methyl-pyrazolo[4,3-b]pyridin-7-amine], the IC50 came out at 0.42 nM in test [1] (read-out: PDE1B, IC50); 88 nM in test [2] (setting [4]); 13 nM in test [3] (setting [4]).

Regarding `[2H]C([2H])([2H])C([2H])([2H])Oc1ncccc1-c1cc(NCc2cccnc2OC)c2c(n1)c(C)nn2C(C)C` [Example 181, 5-(2-(ethoxy-d5)pyridin-3-yl)-1-isopropyl-N-((2-methoxypyridin-3-yl)methyl)-3-methyl-1H-pyrazolo[4,3-b]pyridin-7-amine], the IC50 in test [1] (PDE1B, IC50 (nM)) turned out to be 1.6 nM; in test [2] it was 84 nM; in test [3], 31 nM.

On to `CCOc1ncccc1-c1cc(NCc2nc(C)no2)c2c(n1)c(C)nn2C(C)C` [Example 30, 5-(2-ethoxy-3-pyridyl)-1-isopropyl-3-methyl-N-[(3-methyl-1,2,4-oxadiazol-5-yl)methyl]pyrazolo[4,3-b]pyridin-7-amine], for which the IC50 in test [1] (read-out: PDE1B, IC50) came to 1.3 nM; in test [2] (setting [4]), 31 nM; in test [3] (setting [4]), 15 nM.

As for `CCOc1ncccc1-c1cc(NCc2ncon2)c2c(n1)c(C)nn2C(C)C` [Example 53, 5-(2-ethoxy-3-pyridyl)-1-isopropyl-3-methyl-N-(1,2,4-oxadiazol-3-ylmethyl)pyrazolo[4,3-b]pyridin-7-amine], the IC50 in test [1] (read-out: PDE1B, IC50) is 0.89 nM; in test [2] (setting [4]), 17 nM; in test [3] (setting [4]), 9.3 nM.

Consider `CCOc1ncccc1-c1cc(NCc2ccn(C)n2)c2c(cnn2C(C)C)n1` [Example 19, 5-(2-ethoxypyridin-3-yl)-1-isopropyl-N-((1-methyl-1H-pyrazol-3-yl)methyl)-1H-pyrazolo[4,3-b]pyridin-7-amine], for which the IC50 was determined as 4.6 nM in test [1] (read-out: PDE1B, IC50); 150 nM in test [2] (setting [4]); 66 nM in test [3] (setting [4]).

With `CCOc1ncccc1-c1cc(NCc2cc[nH]n2)c2c(cnn2C(C)CC)n1` (single isomer, unassigned) [Example 136, 5-(2-ethoxy-3-pyridyl)-1-[1-methylpropyl]-N-(1H-pyrazol-3-ylmethyl)pyrazolo[4,3-b]pyridin-7-amine], the IC50 in test [1] (PDE1B, IC50 (nM)) is 3.2 nM; in test [2], 100 nM; in test [3] (setting [4]) it was 62 nM.

With `[2H]C([2H])(C)Oc1ncccc1-c1cc(NCc2cccnc2OC)c2c(n1)c(C)nn2C(C)C` [Example 180, 5-(2-(ethoxy-1,1-d2)pyridin-3-yl)-1-isopropyl-N-((2-methoxypyridin-3-yl)methyl)-3-methyl-1H-pyrazolo[4,3-b]pyridin-7-amine], the IC50 in test [1] (PDE1B, IC50 (nM)) stood at 0.77 nM; in test [2] it was 78 nM; in test [3] it was 27 nM.

Consider `Cc1cnc(-c2cc(NCc3cnn(C)c3)c3c(n2)c(C)nn3C(C)C)s1` [Example 148, 1-isopropyl-3-methyl-N-[(1-methylpyrazol-4-yl)methyl]-5-(5-methylthiazol-2-yl)pyrazolo[4,3-b]pyridin-7-amine], for which the concentration for half-maximal inhibition (IC50) in test [1] (read-out: PDE1B, IC50) came to 58 nM; in test [2] (setting [4]), 86 nM; in test [3] (setting [4]), 110 nM.

As to `CCOc1ncccc1-c1cc(NCc2ccnc(C)c2)c2c(n1)c(C)nn2C(C)C` [Example 103, 5-(2-ethoxy-3-pyridyl)-1-isopropyl-3-methyl-N-[(2-methyl-4-pyridyl)methyl]pyrazolo[4,3-b]pyridin-7-amine], the IC50 in test [1] (read-out: PDE1B, IC50) was found to be 2.9 nM; in test [2] (setting [4]), 17 nM; in test [3] (setting [4]) it was 5.4 nM.

As to `CCOc1ncccc1-c1cc(NCc2cnn(CC)c2)c2c(n1)c(C)nn2C(C)C` [Example 109, 5-(2-ethoxy-3-pyridyl)-N-[(1-ethylpyrazol-4-yl)methyl]-1-isopropyl-3-methyl-pyrazolo[4,3-b]pyridin-7-amine], the IC50 in test [1] (read-out: PDE1B, IC50) was 0.66 nM; in test [2] (setting [4]), 11 nM; in test [3] (setting [4]) it was 4.9 nM.
